Patent US5340589A, “Low solubility drug-coated bead compositions” (Sterling Winthrop Inc., priority 1993, dated 1994)

How the values were obtained:
[1] = in vivo, po; cited from earlier work
[2] = dog, in vivo, po
Protocol: Blood samples were taken at 0.25(tablet only), 0.5, 1, 2, 4, 6, 8, 10, 12 and 24 hours postmedication. The plasma concentration of (5α,17α)-1'-(methylsulfonyl)-1'-H-pregn-20-yno[3,2-c]pyrazol-17-ol was measured from each sample. The data were analyzed to determine the mean maximum concentration of (5α,17α)-1'-(methylsulfonyl)-1'-H-pregn-20-yno[3,2-c]pyrazol-17-ol reached (mean Cmax) and the mean area under the (5α,17α)-1'-(methylsulfonyl)-1'H-pregn-20-yno[3,2-c]pyrazol-17-ol concentration-time curve for the twenty-four hour period (mean AUC0-24).

Molecule | human bioavailability compared with conventional starch-lactose-talc-magnesium stearate dry powder capsule formulations [1] | Mean Cmax [2] | Mean AUC0-24 ([2]; 24 h)
C#C[C@]1(O)CC[C@H]2[C@@H]3CCC4=Cc5oncc5C[C@]4(C)[C@H]3CC[C@@]21C [Compound A, 17a-pregna-2,4-diene-20-yno[2,3-d]isoxazol-17-ol] | Improved human bioavailability |  | 
(5α,17α)-1'-(methylsulfonyl)-1'H-pregn-20-yno[3,2-c]pyrazol-17-ol [Comparative Example] |  | 0.23 (0.11) μg./ml. | 1.70 (1.64) μg.-hr./ml.
